For test [1], the system named is KG-1 cells. The test can be described thus: Antiproliferative activity against KG-1 cells (CCK8). To be noted: Homo sapiens, 72 h incubation, CCK8 method. It counts as cell-based. As to the method:
KG-1 cells in the logarithmic growth phase were diluted in a culture medium (RPMI+10% FBS) and plated onto 96-well plates at 5000 cells/well, and the plates were incubated in an incubator at 37° C. with 5% CO2 for 24 h. 10 mM stock solutions of the test compounds of the present disclosure in DMSO were prepared and diluted with the culture medium to set 9 concentration gradients. 3 replicate wells were set for each concentration. After compound addition, the plates were incubated in an incubator at 37° C. with 5% CO2 for 72 h. The cell proliferation was assessed using the CCK8 method. The cell growth inhibition IC50 values of the compounds were determined using an enzyme labeling method. The IC50 values were calculated using GraphPad Prism 7 software.
The antiproliferative activity of the compounds against KG-1 cells is shown in Table 2, where A represents IC50≤30 nM, B represents 30<IC50≤300 nM, and C represents IC50>300 nM.

For test [2], the target named is T1, GSPT1 protein (Homo sapiens, UniProt P15170+Q96SW2).
T1 construct: Whole cell lysates were prepared; endogenous in cells; host or cells: KG-1 cells
T1 sequence (P15170 whole entry): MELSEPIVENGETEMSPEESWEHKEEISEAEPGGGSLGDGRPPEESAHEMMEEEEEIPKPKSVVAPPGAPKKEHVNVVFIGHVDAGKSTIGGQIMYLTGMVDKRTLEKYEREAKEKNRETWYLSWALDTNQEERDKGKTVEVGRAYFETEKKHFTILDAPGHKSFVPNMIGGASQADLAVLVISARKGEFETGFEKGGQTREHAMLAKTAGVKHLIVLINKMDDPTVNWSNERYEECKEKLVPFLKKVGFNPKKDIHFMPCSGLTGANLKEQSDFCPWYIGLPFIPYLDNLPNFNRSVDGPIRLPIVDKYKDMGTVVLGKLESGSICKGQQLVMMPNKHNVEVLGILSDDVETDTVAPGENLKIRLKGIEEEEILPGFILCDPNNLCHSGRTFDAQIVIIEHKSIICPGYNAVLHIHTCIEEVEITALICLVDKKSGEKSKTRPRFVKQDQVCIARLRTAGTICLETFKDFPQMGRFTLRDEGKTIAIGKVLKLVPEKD
T1 sequence (Q96SW2 whole entry): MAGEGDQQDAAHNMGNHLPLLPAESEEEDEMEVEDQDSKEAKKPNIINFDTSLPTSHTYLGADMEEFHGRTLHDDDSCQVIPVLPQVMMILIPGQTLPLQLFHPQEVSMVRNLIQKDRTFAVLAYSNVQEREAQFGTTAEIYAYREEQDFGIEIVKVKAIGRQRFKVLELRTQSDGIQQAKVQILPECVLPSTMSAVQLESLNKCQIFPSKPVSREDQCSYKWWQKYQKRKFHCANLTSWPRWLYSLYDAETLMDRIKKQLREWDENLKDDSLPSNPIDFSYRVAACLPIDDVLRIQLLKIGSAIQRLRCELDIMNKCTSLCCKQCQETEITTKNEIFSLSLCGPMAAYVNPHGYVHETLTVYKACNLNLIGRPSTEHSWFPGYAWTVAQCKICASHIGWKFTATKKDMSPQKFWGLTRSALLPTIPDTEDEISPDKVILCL
T1 sequence (Q16531 whole entry partner): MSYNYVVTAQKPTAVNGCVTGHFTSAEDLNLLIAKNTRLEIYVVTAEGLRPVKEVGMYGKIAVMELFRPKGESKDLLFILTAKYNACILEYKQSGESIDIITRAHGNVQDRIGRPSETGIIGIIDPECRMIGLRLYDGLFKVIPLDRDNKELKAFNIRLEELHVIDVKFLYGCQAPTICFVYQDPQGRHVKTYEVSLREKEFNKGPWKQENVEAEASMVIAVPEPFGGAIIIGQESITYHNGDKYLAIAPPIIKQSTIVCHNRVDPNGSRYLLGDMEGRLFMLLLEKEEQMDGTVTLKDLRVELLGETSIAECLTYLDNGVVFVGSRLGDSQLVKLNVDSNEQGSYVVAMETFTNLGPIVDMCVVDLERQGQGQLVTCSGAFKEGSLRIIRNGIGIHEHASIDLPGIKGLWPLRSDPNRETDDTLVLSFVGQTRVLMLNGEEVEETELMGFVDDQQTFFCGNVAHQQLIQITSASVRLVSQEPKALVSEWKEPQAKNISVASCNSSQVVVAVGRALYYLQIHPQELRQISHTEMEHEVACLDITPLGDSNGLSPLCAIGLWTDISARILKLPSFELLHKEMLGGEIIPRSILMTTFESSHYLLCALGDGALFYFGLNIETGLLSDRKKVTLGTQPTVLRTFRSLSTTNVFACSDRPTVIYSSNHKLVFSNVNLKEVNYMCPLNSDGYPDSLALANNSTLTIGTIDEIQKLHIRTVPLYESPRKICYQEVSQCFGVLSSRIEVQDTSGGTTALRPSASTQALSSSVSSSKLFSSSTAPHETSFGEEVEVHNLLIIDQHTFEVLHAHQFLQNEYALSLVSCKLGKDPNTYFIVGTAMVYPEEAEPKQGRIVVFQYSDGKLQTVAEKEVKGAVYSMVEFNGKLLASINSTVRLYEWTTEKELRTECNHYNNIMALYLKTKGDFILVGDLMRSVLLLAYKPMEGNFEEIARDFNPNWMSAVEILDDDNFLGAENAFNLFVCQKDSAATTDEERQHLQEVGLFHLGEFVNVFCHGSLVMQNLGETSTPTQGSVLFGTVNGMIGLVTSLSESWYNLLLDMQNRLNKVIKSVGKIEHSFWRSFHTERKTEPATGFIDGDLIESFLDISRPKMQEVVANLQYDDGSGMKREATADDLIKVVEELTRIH
Briefly: Degradation of GSPT1 in KG-1 cells (Western blot). It counts as cell-based. The following applies: compound concentration 200 nM, 4 h incubation. The procedure: KG-1 cells were grown in an IMDM culture medium (containing 20% FBS). After centrifugation and counting, the cell concentration was adjusted. The cells were plated onto 6-well plates at 10^6 cells/well, with 1350 μL per well. 150 μL of DMSO and the test compounds of the present disclosure (compound concentration: 200 nM) were added. The plates were incubated in an incubator at 37° C. with 5% CO2 for 4 h. The cells were centrifuged, and the culture medium was discarded. PBS was added to wash the cells and then discarded. Whole cell lysates were prepared using a protease inhibitor cocktail (100×, Fude Biological), a protein phosphatase inhibitor cocktail (100×, Fude Biological), Super Nuclease (Beyotime), and a high-intensity RIPA lysis buffer (Thermo Fisher) and placed on ice for 30 min. After centrifugation, the cell debris precipitates were discarded, and the whole cell lysate supernatants were collected and transferred to new centrifuge tubes. After a BCA protein assay, samples were prepared using a 5× loading buffer (Thermo Fisher). The samples were subjected to protein electrophoresis separation in a 4-20% precast gel (SDS-PAGE gel), transferred to a PVDF membrane, blocked with 5% NFDM/TBST at room temperature for 1 h, incubated overnight with primary antibodies at 4° C., and incubated with a secondary antibody at room temperature for 2 h the next day. Signals were detected using a MINICHEMITM imaging system.
• Anti-GSPT1: Abcam ab234433 • Anti-beta actin: Fude Biological FD0060
• Anti-rabbit peroxidase-linked secondary antibody: Fude Biological FDG007
The degradation effects of the compounds on GSPT1 protein are shown in Table 1, where A represents a GSPT1 protein degradation percentage of no less than 70%, B represents a degradation percentage of less than 70% but no less than 30%, and C represents a degradation percentage of less than 30%.
(In general: Immunoblotting shows a protein as a band on a membrane.)

Bounds are passed on as bounds.

In general, IC50 refers to the concentration that gives 50% inhibition. A high value points to a need for much substance. For orientation: inhibition means the percentage by which the read-out fell short of the control. Molecule `O=C1CCC(n2ncc3cc(CNC(=O)C4=Cc5ccccc5OC4)ccc3c2=O)C(=O)N1` (centres unmarked) [Compound T-1, N-((2-(2,6-Dioxopiperidin-3-yl)-1-oxo-1,2-dihydrophthalazin-6-yl)methyl)-2H-chromene-3-carboxamide] gave an IC50 in test [1] of 30 to 300 nM. Further, the inhibition at 0.2 µM in test [2] is 30 to 70%.
The molecule `O=C1CCC(n2ncc3cc(CNC(=O)C4=Cc5c(F)cccc5OC4)ccc3c2=O)C(=O)N1` (centres unmarked) [Compound T-2, N-((2-(2,6-Dioxopiperidin-3-yl)-1-oxo-1,2-dihydrophthalazin-6-yl)methyl)-5-fluoro-2H-chromene-3-carboxamide] displayed an IC50 in test [1] of at most 30 nM. Besides, the inhibition at 0.2 µM in test [2] was at least 70%.
In turn, `O=C1CCC(n2ncc3cc(CNC(=O)C4=Cc5cc(F)ccc5OC4)ccc3c2=O)C(=O)N1` (centres unmarked) [Compound T-3, N-((2-(2,6-Dioxopiperidin-3-yl)-1-oxo-1,2-dihydrophthalazin-6-yl)methyl)-6-fluoro-2H-chromene-3-carboxamide] gave an IC50 in test [1] of 30 to 300 nM. The molecule further returned an inhibition at 0.2 µM in test [2] of 30 to 70%.
For the molecule `O=C1CCC(n2ncc3cc(CNC(=O)C4=Cc5ccc(F)cc5OC4)ccc3c2=O)C(=O)N1` (centres unmarked) [Compound T-4, N-((2-(2,6-Dioxopiperidin-3-yl)-1-oxo-1,2-dihydrophthalazin-6-yl)methyl)-7-fluoro-2H-chromene-3-carboxamide], the IC50 in test [1] lay in the range of 30 to 300 nM. This molecule also returned an inhibition at 0.2 µM in test [2] of 30 to 70%.
The molecule `O=C1CCC(n2ncc3cc(CNC(=O)C4=Cc5cccc(F)c5OC4)ccc3c2=O)C(=O)N1` (centres unmarked) [Compound T-5, N-((2-(2,6-Dioxopiperidin-3-yl)-1-oxo-1,2-dihydrophthalazin-6-yl)methyl)-8-fluoro-2H-chromene-3-carboxamide] yielded a half-maximal inhibitory concentration (IC50) in test [1] of at most 30 nM. In test [2], this molecule gave an inhibition at 0.2 µM of 30 to 70%.
The corresponding values for `COc1cccc2c1OCC(C(=O)NCc1ccc3c(=O)n(C4CCC(=O)NC4=O)ncc3c1)=C2` (centres unmarked) [Compound T-6, N-((2-(2,6-Dioxopiperidin-3-yl)-1-oxo-1,2-dihydrophthalazin-6-yl)methyl)-8-methoxy-2H-chromene-3-carboxamide] are 30 to 300 nM and 30 to 70%.
In the case of `COc1cccc2c1C=C(C(=O)NCc1ccc3c(=O)n(C4CCC(=O)NC4=O)ncc3c1)CO2` (centres unmarked) [Compound T-7, N-((2-(2,6-Dioxopiperidin-3-yl)-1-oxo-1,2-dihydrophthalazin-6-yl)methyl)-5-methoxy-2H-chromene-3-carboxamide], the IC50 in test [1] is at most 30 nM. In test [2], this molecule displayed an inhibition at 0.2 µM of at least 70%.
Taken in the same sequence, the figures for `COc1ccc2c(c1)C=C(C(=O)NCc1ccc3c(=O)n(C4CCC(=O)NC4=O)ncc3c1)CO2` (centres unmarked) [Compound T-8, N-((2-(2,6-Dioxopiperidin-3-yl)-1-oxo-1,2-dihydrophthalazin-6-yl)methyl)-6-methoxy-2H-chromene-3-carboxamide] were 30 to 300 nM and 30 to 70%.
The corresponding values for `O=C1CCC(n2ncc3cc(CNC(=O)C4=Cc5cccc(OC(F)(F)F)c5OC4)ccc3c2=O)C(=O)N1` (centres unmarked) [Compound T-9, N-((2-(2,6-Dioxopiperidin-3-yl)-1-oxo-1,2-dihydrophthalazin-6-yl)methyl)-8-(trifluoromethoxy)-2H-chromene-3-carboxamide] are at most 30 nM and 30 to 70%.
The corresponding values for `O=C1CCC(n2ncc3cc(CNC(=O)C4=Cc5cc(OC(F)(F)F)ccc5OC4)ccc3c2=O)C(=O)N1` (centres unmarked) [Compound T-10, N-((2-(2,6-Dioxopiperidin-3-yl)-1-oxo-1,2-dihydrophthalazin-6-yl)methyl)-6-(trifluoromethoxy)-2H-chromene-3-carboxamide] are at most 30 nM and at least 70%.
The molecule `Cc1cccc2c1OCC(C(=O)NCc1ccc3c(=O)n(C4CCC(=O)NC4=O)ncc3c1)=C2` (centres unmarked) [Compound T-11, N-((2-(2,6-Dioxopiperidin-3-yl)-1-oxo-1,2-dihydrophthalazin-6-yl)methyl)-8-methyl-2H-chromene-3-carboxamide] yielded an IC50 in test [1] of 30 to 300 nM. In addition, in test [2], the inhibition at 0.2 µM was 30 to 70%.
Turning to `Cc1ccc2c(c1)C=C(C(=O)NCc1ccc3c(=O)n(C4CCC(=O)NC4=O)ncc3c1)CO2` (centres unmarked) [Compound T-12, N-((2-(2,6-Dioxopiperidin-3-yl)-1-oxo-1,2-dihydrophthalazin-6-yl)methyl)-6-methyl-2H-chromene-3-carboxamide], the 50% inhibitory concentration (IC50) in test [1] was in the range of 30 to 300 nM. The same molecule displayed an inhibition at 0.2 µM in test [2] of 30 to 70%.
As to `O=C1CCC(n2ncc3cc(CNC(=O)C4=Cc5cc(Cl)ccc5OC4)ccc3c2=O)C(=O)N1` (centres unmarked) [Compound T-13, 6-Chloro-N-((2-(2,6-dioxopiperidin-3-yl)-1-oxo-1,2-dihydrophthalazin-6-yl)methyl)-2H-chromene-3-carboxamide], the concentration for half-maximal inhibition (IC50) in test [1] was 30 to 300 nM. Also, the inhibition at 0.2 µM in test [2] was 30 to 70%.
Consider `O=C1CCC(n2ncc3cc(CNC(=O)C4=Cc5cc(Br)ccc5OC4)ccc3c2=O)C(=O)N1` (centres unmarked) [Compound T-14, 6-Bromo-N-((2-(2,6-dioxopiperidin-3-yl)-1-oxo-1,2-dihydrophthalazin-6-yl)methyl)-2H-chromene-3-carboxamide], for which, in test [1], the IC50 fell in the range of 30 to 300 nM. The inhibition at 0.2 µM in test [2] is 30 to 70%.
As to `O=C1CCC(n2ncc3cc(CNC(=O)C4=Cc5c(cccc5C(F)(F)F)OC4)ccc3c2=O)C(=O)N1` (centres unmarked) [Compound T-15, N-((2-(2,6-Dioxopiperidin-3-yl)-1-oxo-1,2-dihydrophthalazin-6-yl)methyl)-5-(trifluoromethyl)-2H-chromene-3-carboxamide], the IC50 in test [1] is at most 30 nM. In test [2], this molecule came in with an inhibition at 0.2 µM of at least 70%.
Taken in the same sequence, the figures for `C=Cc1ccc2c(c1)C=C(C(=O)NCc1ccc3c(=O)n(C4CCC(=O)NC4=O)ncc3c1)CO2` (centres unmarked) [Compound T-16, N-((2-(2,6-Dioxopiperidin-3-yl)-1-oxo-1,2-dihydrophthalazin-6-yl)methyl)-6-vinyl-2H-chromene-3-carboxamide] were over 300 nM and under 30%.
Consider `CC(C)(C)c1ccc2c(c1)C=C(C(=O)NCc1ccc3c(=O)n(C4CCC(=O)NC4=O)ncc3c1)CO2` (centres unmarked) [Compound T-17, 6-(tert-Butyl)-N-((2-(2,6-dioxopiperidin-3-yl)-1-oxo-1,2-dihydrophthalazin-6-yl)methyl)-2H-chromene-3-carboxamide], for which, in test [1], the 50% inhibitory concentration (IC50) is at most 30 nM. In test [2], this molecule had an inhibition at 0.2 µM of at least 70%.
The molecule `O=C1CCC(n2ncc3cc(CNC(=O)C4=Cc5cc(-c6ccccc6)ccc5OC4)ccc3c2=O)C(=O)N1` (centres unmarked) [Compound T-18, N-((2-(2,6-Dioxopiperidin-3-yl)-1-oxo-1,2-dihydrophthalazin-6-yl)methyl)-6-phenyl-2H-chromene-3-carboxamide] came in with a half-maximal inhibitory concentration (IC50) in test [1] of at most 30 nM. Further, in test [2], the inhibition at 0.2 µM is at least 70%.
`O=C1CCC(n2ncc3cc(CNC(=O)C4=Cc5cc(F)cc(F)c5OC4)ccc3c2=O)C(=O)N1` (centres unmarked) [Compound T-19, N-((2-(2,6-Dioxopiperidin-3-yl)-1-oxo-1,2-dihydrophthalazin-6-yl)methyl)-6,8-difluoro-2H-chromene-3-carboxamide] gave an IC50 in test [1] of 30 to 300 nM. This molecule also gave an inhibition at 0.2 µM in test [2] of 30 to 70%.
The molecule `Cc1cc2c(cc1Cl)C=C(C(=O)NCc1ccc3c(=O)n(C4CCC(=O)NC4=O)ncc3c1)CO2` (centres unmarked) [Compound T-20, 6-Chloro-N-((2-(2,6-dioxopiperidin-3-yl)-1-oxo-1,2-dihydrophthalazin-6-yl)methyl)-7-methyl-2H-chromene-3-carboxamide] showed a concentration for half-maximal inhibition (IC50) in test [1] of 30 to 300 nM. The inhibition at 0.2 µM in test [2] was in the range of 30 to 70%.
As for `O=C1CCC(n2ncc3cc(CNC(=O)C4COc5ccccc5C4)ccc3c2=O)C(=O)N1` (centres unmarked) [Compound T-21, N-((2-(2,6-Dioxopiperidin-3-yl)-1-oxo-1,2-dihydrophthalazin-6-yl)methyl) chromane-3-carboxamide], the 50% inhibitory concentration (IC50) in test [1] fell in the range of 30 to 300 nM. Besides, the inhibition at 0.2 µM in test [2] was 30 to 70%.
Take `O=C1CCC(n2ncc3cc(CNC(=O)C4COc5ccc(F)cc5C4)ccc3c2=O)C(=O)N1` (centres unmarked) [Compound T-22, N-((2-(2,6-Dioxopiperidin-3-yl)-1-oxo-1,2-dihydrophthalazin-6-yl)methyl)-6-fluorochromane-3-carboxamide]: the IC50 in test [1] was at most 30 nM. In addition, the inhibition at 0.2 µM in test [2] was in the range of 30 to 70%.

The values above are taken from patent US20260263459A1, “PHTHALAZINONE GSPT1 PROTEIN DEGRADING AGENT AND USE THEREOF” (CHINA PHARMACEUTICAL UNIVERSITY, priority 2023, published 2026).
